Experiment: xn = mol fraction of the nth substance listed
Conditions: Constant-volume piezometry

CCCCC [pentane] + CCCO
Conditions	mass density [kg/m3]
492.15 K, 4052 kPa, Gas, x1 = 0.5	144.33
492.15 K, 4112 kPa, Gas, x1 = 0.5	154.72
493.15 K, 888 kPa, Gas, x1 = 0.5	15.54
493.15 K, 1226 kPa, Gas, x1 = 0.8	22.56
493.15 K, 1421 kPa, Gas, x1 = 0.2	24.96
493.15 K, 1591 kPa, Gas, x1 = 0.5	30.02
493.15 K, 1810 kPa, Gas, x1 = 0.8	36.74
493.15 K, 2098 kPa, Gas, x1 = 0.5	40.54
493.15 K, 2429 kPa, Gas, x1 = 0.5	51.17
493.15 K, 2601 kPa, Gas, x1 = 0.8	58.5
493.15 K, 2706 kPa, Gas, x1 = 0.2	53.08
493.15 K, 2984 kPa, Gas, x1 = 0.5	67.61
493.15 K, 3042 kPa, Gas, x1 = 0.8	73.9
493.15 K, 3148 kPa, Gas, x1 = 0.5	72.7
493.15 K, 3184 kPa, Gas, x1 = 0.9	83.5
493.15 K, 3462 kPa, Gas, x1 = 0.5	89.03
493.15 K, 3598 kPa, Gas, x1 = 0.5	95.98
493.15 K, 3742 kPa, Gas, x1 = 0.8	106.55
493.15 K, 3862 kPa, Fluid (supercritical or subcritical phases), x1 = 0.9	123.52
493.15 K, 3941 kPa, Gas, x1 = 0.5	122.07
493.15 K, 3987 kPa, Fluid (supercritical or subcritical phases), x1 = 0.9	134.31
493.15 K, 4087 kPa, Gas, x1 = 0.5	144.32
493.15 K, 4129 kPa, Liquid, x1 = 0.2	471.17
493.15 K, 4161 kPa, Gas, x1 = 0.5	154.71
493.15 K, 4227 kPa, Gas, x1 = 0.5	165.38
493.15 K, 4237 kPa, Fluid (supercritical or subcritical phases), x1 = 0.8	140.51
493.15 K, 4263 kPa, Gas, x1 = 0.5	183.12
493.15 K, 4268 kPa, Fluid (supercritical or subcritical phases), x1 = 0.9	164.19
493.15 K, 4335 kPa, Fluid (supercritical or subcritical phases), x1 = 0.5	282.8
493.15 K, 4335 kPa, Fluid (supercritical or subcritical phases), x1 = 0.8	156.27
493.15 K, 4414 kPa, Fluid (supercritical or subcritical phases), x1 = 0.5	299.12
493.15 K, 4423 kPa, Fluid (supercritical or subcritical phases), x1 = 0.8	170.03
493.15 K, 4439 kPa, Fluid (supercritical or subcritical phases), x1 = 0.9	189.73
493.15 K, 4462 kPa, Fluid (supercritical or subcritical phases), x1 = 0.8	176.28
493.15 K, 4502 kPa, Fluid (supercritical or subcritical phases), x1 = 0.8	181.09
493.15 K, 4518 kPa, Fluid (supercritical or subcritical phases), x1 = 0.9	202.67
493.15 K, 4547 kPa, Fluid (supercritical or subcritical phases), x1 = 0.8	193.44
493.15 K, 4549 kPa, Fluid (supercritical or subcritical phases), x1 = 0.5	320.48
493.15 K, 4592 kPa, Fluid (supercritical or subcritical phases), x1 = 0.5	325.77
493.15 K, 4629 kPa, Fluid (supercritical or subcritical phases), x1 = 0.9	221.01
493.15 K, 4679 kPa, Fluid (supercritical or subcritical phases), x1 = 0.8	214.17
493.15 K, 4710 kPa, Fluid (supercritical or subcritical phases), x1 = 0.8	219.94
493.15 K, 4720 kPa, Fluid (supercritical or subcritical phases), x1 = 0.9	233.41
493.15 K, 4743 kPa, Fluid (supercritical or subcritical phases), x1 = 0.9	236.88
493.15 K, 4769 kPa, Fluid (supercritical or subcritical phases), x1 = 0.9	241.29
493.15 K, 4776 kPa, Fluid (supercritical or subcritical phases), x1 = 0.5	345.09
493.15 K, 4792 kPa, Fluid (supercritical or subcritical phases), x1 = 0.9	244.6
493.15 K, 4810 kPa, Fluid (supercritical or subcritical phases), x1 = 0.8	235.05
493.15 K, 4875 kPa, Fluid (supercritical or subcritical phases), x1 = 0.8	245.71
493.15 K, 4935 kPa, Fluid (supercritical or subcritical phases), x1 = 0.8	258.95
493.15 K, 5020 kPa, Fluid (supercritical or subcritical phases), x1 = 0.9	282.43
493.15 K, 5042 kPa, Fluid (supercritical or subcritical phases), x1 = 0.8	272.94
493.15 K, 5149 kPa, Fluid (supercritical or subcritical phases), x1 = 0.8	288.82
493.15 K, 5207 kPa, Fluid (supercritical or subcritical phases), x1 = 0.5	373.47
493.15 K, 5245 kPa, Fluid (supercritical or subcritical phases), x1 = 0.9	302.14
493.15 K, 5306 kPa, Fluid (supercritical or subcritical phases), x1 = 0.8	299.65
493.15 K, 5423 kPa, Fluid (supercritical or subcritical phases), x1 = 0.9	312.8
493.15 K, 5594 kPa, Fluid (supercritical or subcritical phases), x1 = 0.8	315.85
493.15 K, 5904 kPa, Fluid (supercritical or subcritical phases), x1 = 0.9	334.55
493.15 K, 5953 kPa, Fluid (supercritical or subcritical phases), x1 = 0.5	398.77
493.15 K, 5998 kPa, Fluid (supercritical or subcritical phases), x1 = 0.8	334.37
493.15 K, 6296 kPa, Fluid (supercritical or subcritical phases), x1 = 0.8	345.91
493.15 K, 6629 kPa, Fluid (supercritical or subcritical phases), x1 = 0.9	354.68
493.15 K, 6775 kPa, Fluid (supercritical or subcritical phases), x1 = 0.5	417.91
493.15 K, 7003 kPa, Fluid (supercritical or subcritical phases), x1 = 0.8	362.51
493.15 K, 7649 kPa, Liquid, x1 = 0.2	510.49
493.15 K, 8441 kPa, Fluid (supercritical or subcritical phases), x1 = 0.5	441.69
493.15 K, 9382 kPa, Fluid (supercritical or subcritical phases), x1 = 0.5	452.03
493.15 K, 10256 kPa, Fluid (supercritical or subcritical phases), x1 = 0.9	407.97
493.15 K, 10826 kPa, Fluid (supercritical or subcritical phases), x1 = 0.8	418.91
493.15 K, 11783 kPa, Fluid (supercritical or subcritical phases), x1 = 0.5	468.97
493.15 K, 14598 kPa, Liquid, x1 = 0.2	548.05
493.15 K, 18923 kPa, Fluid (supercritical or subcritical phases), x1 = 0.8	467.52
493.15 K, 23193 kPa, Fluid (supercritical or subcritical phases), x1 = 0.5	520.3
493.15 K, 26040 kPa, Liquid, x1 = 0.2	582.45
493.15 K, 27225 kPa, Fluid (supercritical or subcritical phases), x1 = 0.8	497.01
493.15 K, 32486 kPa, Fluid (supercritical or subcritical phases), x1 = 0.5	549.21
493.15 K, 32782 kPa, Liquid, x1 = 0.2	596.07
493.15 K, 37919 kPa, Fluid (supercritical or subcritical phases), x1 = 0.8	521.58
493.15 K, 43289 kPa, Liquid, x1 = 0.2	615.49
494.15 K, 4206 kPa, Gas, x1 = 0.5	154.71
494.15 K, 4318 kPa, Gas, x1 = 0.5	183.11
494.15 K, 4366 kPa, Fluid (supercritical or subcritical phases), x1 = 0.5	251.05
498.15 K, 4515 kPa, Fluid (supercritical or subcritical phases), x1 = 0.5	183.07
498.15 K, 4637 kPa, Fluid (supercritical or subcritical phases), x1 = 0.5	251
498.15 K, 4641 kPa, Fluid (supercritical or subcritical phases), x1 = 0.5	260.06
503.15 K, 912 kPa, Gas, x1 = 0.5	15.53
503.15 K, 1255 kPa, Gas, x1 = 0.8	22.55
503.15 K, 1464 kPa, Gas, x1 = 0.2	24.95
503.15 K, 1642 kPa, Gas, x1 = 0.5	30.01
503.15 K, 1866 kPa, Gas, x1 = 0.8	36.72
503.15 K, 2163 kPa, Gas, x1 = 0.5	40.52
503.15 K, 2523 kPa, Gas, x1 = 0.5	51.14
503.15 K, 2701 kPa, Gas, x1 = 0.8	58.47
503.15 K, 2838 kPa, Gas, x1 = 0.2	53.06
503.15 K, 3137 kPa, Gas, x1 = 0.5	67.58
503.15 K, 3169 kPa, Gas, x1 = 0.8	73.86
503.15 K, 3305 kPa, Gas, x1 = 0.5	72.67
503.15 K, 3338 kPa, Gas, x1 = 0.9	83.46
503.15 K, 3585 kPa, Gas, x1 = 0.2	91.5
503.15 K, 3654 kPa, Gas, x1 = 0.5	88.99
503.15 K, 3800 kPa, Gas, x1 = 0.5	95.94
503.15 K, 3948 kPa, Fluid (supercritical or subcritical phases), x1 = 0.8	106.5
503.15 K, 4106 kPa, Fluid (supercritical or subcritical phases), x1 = 0.9	123.46
503.15 K, 4150 kPa, Liquid, x1 = 0.2	419.16
503.15 K, 4247 kPa, Fluid (supercritical or subcritical phases), x1 = 0.5	122.01
503.15 K, 4264 kPa, Fluid (supercritical or subcritical phases), x1 = 0.9	134.25
503.15 K, 4466 kPa, Fluid (supercritical or subcritical phases), x1 = 0.5	144.25
503.15 K, 4546 kPa, Fluid (supercritical or subcritical phases), x1 = 0.8	140.44
503.15 K, 4573 kPa, Fluid (supercritical or subcritical phases), x1 = 0.5	154.64
503.15 K, 4621 kPa, Fluid (supercritical or subcritical phases), x1 = 0.9	164.11
503.15 K, 4653 kPa, Fluid (supercritical or subcritical phases), x1 = 0.5	165.3
503.15 K, 4689 kPa, Fluid (supercritical or subcritical phases), x1 = 0.8	156.19
503.15 K, 4764 kPa, Fluid (supercritical or subcritical phases), x1 = 0.5	183.03
503.15 K, 4818 kPa, Fluid (supercritical or subcritical phases), x1 = 0.8	169.95
503.15 K, 4821 kPa, Fluid (supercritical or subcritical phases), x1 = 0.5	200.59
503.15 K, 4859 kPa, Fluid (supercritical or subcritical phases), x1 = 0.9	189.64
503.15 K, 4864 kPa, Fluid (supercritical or subcritical phases), x1 = 0.5	210.43
503.15 K, 4865 kPa, Fluid (supercritical or subcritical phases), x1 = 0.8	176.2
503.15 K, 4895 kPa, Fluid (supercritical or subcritical phases), x1 = 0.5	224.27
503.15 K, 4924 kPa, Fluid (supercritical or subcritical phases), x1 = 0.8	181
503.15 K, 4956 kPa, Fluid (supercritical or subcritical phases), x1 = 0.5	241.74
503.15 K, 4976 kPa, Fluid (supercritical or subcritical phases), x1 = 0.5	250.94
503.15 K, 4988 kPa, Fluid (supercritical or subcritical phases), x1 = 0.9	202.57
503.15 K, 4993 kPa, Fluid (supercritical or subcritical phases), x1 = 0.5	260
503.15 K, 5013 kPa, Fluid (supercritical or subcritical phases), x1 = 0.8	193.35
503.15 K, 5023 kPa, Fluid (supercritical or subcritical phases), x1 = 0.5	270.83
503.15 K, 5099 kPa, Fluid (supercritical or subcritical phases), x1 = 0.5	282.66
503.15 K, 5158 kPa, Fluid (supercritical or subcritical phases), x1 = 0.9	220.9
503.15 K, 5187 kPa, Fluid (supercritical or subcritical phases), x1 = 0.8	214.06
503.15 K, 5234 kPa, Fluid (supercritical or subcritical phases), x1 = 0.8	219.83
503.15 K, 5246 kPa, Fluid (supercritical or subcritical phases), x1 = 0.5	298.97
503.15 K, 5287 kPa, Fluid (supercritical or subcritical phases), x1 = 0.9	233.29
503.15 K, 5320 kPa, Fluid (supercritical or subcritical phases), x1 = 0.9	236.76
503.15 K, 5356 kPa, Fluid (supercritical or subcritical phases), x1 = 0.9	241.17
503.15 K, 5385 kPa, Fluid (supercritical or subcritical phases), x1 = 0.9	244.48
503.15 K, 5390 kPa, Fluid (supercritical or subcritical phases), x1 = 0.8	234.94
503.15 K, 5482 kPa, Fluid (supercritical or subcritical phases), x1 = 0.8	245.58
503.15 K, 5510 kPa, Fluid (supercritical or subcritical phases), x1 = 0.5	320.32
503.15 K, 5579 kPa, Fluid (supercritical or subcritical phases), x1 = 0.5	325.6
503.15 K, 5611 kPa, Fluid (supercritical or subcritical phases), x1 = 0.8	258.82
503.15 K, 5786 kPa, Fluid (supercritical or subcritical phases), x1 = 0.9	282.29
503.15 K, 5797 kPa, Fluid (supercritical or subcritical phases), x1 = 0.8	272.8
503.15 K, 5864 kPa, Fluid (supercritical or subcritical phases), x1 = 0.5	344.91

mass density [kg/m3], Liquid
Conditions	492.65 K	492.95 K	493.15 K	502.95 K
x1 = 0.2	–	–	–	419.16
x1 = 0.5	282.81	270.96	260.13	–
